The values below come from patent publication US7335632B2, “Beta-secretase inhibitors and methods of use thereof” (CoMentis, Inc., priority 2001, dated 2008).

Molecules are shown by their SMILES.

One assay deals with Aβ production. In words: Cellular Aβ IC50 determination (Aβ40 sandwich ELISA). Type of assay: cell-based. The note with it: Cricetulus griseus, Chinese hamster ovary cells over-expressing human APP695 with London and Swedish mutations, 24 h. How it is done:
The potency of compounds against memapsin 2 activity was determined in a cellular assay of Aβ production. […] Chinese hamster ovary cells that over-express human APP695 with the London and Swedish mutations were seeded in multi-well plates at 10% confluency. Compounds were dissolved in DMSO to concentrations near 1 mM, and diluted into culture media to a final concentration near 4 μM (final 0.4% DMSO). Compounds were diluted serially and applied to cells in multi-well plates 48 h after seeding. Incubation was continued in 5% CO2 at 37 degrees C. for 24 h. Aliquots were removed and assayed for Aβ40 content using a sandwich ELISA (BioSource International). Amount of Aβ40 over the range of concentration of compounds, relative to control incubations, were fit to a 4-parameter IC50 model.
Background: In an ELISA, binding on a coated surface is turned into a signal by an enzyme label.

A further assay has as its target T1, memapsin 1 (Homo sapiens, UniProt Q9Y5Z0).
T1 sequence (Q9Y5Z0 63-518): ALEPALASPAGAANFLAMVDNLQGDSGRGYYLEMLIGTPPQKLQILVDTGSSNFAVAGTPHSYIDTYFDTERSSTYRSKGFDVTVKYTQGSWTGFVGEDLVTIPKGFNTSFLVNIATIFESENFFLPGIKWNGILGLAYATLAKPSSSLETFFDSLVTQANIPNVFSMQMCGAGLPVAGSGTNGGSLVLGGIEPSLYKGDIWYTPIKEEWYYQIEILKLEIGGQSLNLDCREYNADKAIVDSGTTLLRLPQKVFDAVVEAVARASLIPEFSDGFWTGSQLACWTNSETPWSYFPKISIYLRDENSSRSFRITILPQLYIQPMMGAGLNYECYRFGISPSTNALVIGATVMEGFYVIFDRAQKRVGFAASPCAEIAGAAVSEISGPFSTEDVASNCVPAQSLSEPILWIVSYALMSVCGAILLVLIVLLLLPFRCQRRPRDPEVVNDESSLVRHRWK
In words: Inhibition of memapsin 1 beta-secretase activity (substrate peptide […], MALDI-TOF). Type of assay: biochemical. Conditions: pH 4.1, 37 degrees C., substrate NH3-ELDLAVEFWHDR-CO2, MALDI-TOF; read-out: M1 Ki.

Another assay has as its target memapsin 2 (Homo sapiens, UniProt P56817). Description: Inhibition of memapsin 2 beta-secretase activity toward fluorogenic substrate FS-2. Conditions: pH 4, 37° C., 20 minutes pre-incubation, substrate FS-2, tight-binding model; read-out: M2 Ki. Type of assay: biochemical. An outline of the steps:
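Enzyme pre-incubated with compound 20 min at pH 4, 37 °C, then fluorogenic substrate FS-2 added. Inhibition derived from rate of fluorescence increase from peptide hydrolysis.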

Another assay deals with Cathepsin D (Homo sapiens, UniProt P07339). In words: Inhibition of cathepsin D activity (substrate peptide […], MALDI-TOF). Format: biochemical. Conditions: pH 4.1, 37 degrees C., substrate NH3-[…]-CO2, MALDI-TOF; read-out: Cath D Ki.
Chain of Cathepsin D (P07339 65-412, species assumed): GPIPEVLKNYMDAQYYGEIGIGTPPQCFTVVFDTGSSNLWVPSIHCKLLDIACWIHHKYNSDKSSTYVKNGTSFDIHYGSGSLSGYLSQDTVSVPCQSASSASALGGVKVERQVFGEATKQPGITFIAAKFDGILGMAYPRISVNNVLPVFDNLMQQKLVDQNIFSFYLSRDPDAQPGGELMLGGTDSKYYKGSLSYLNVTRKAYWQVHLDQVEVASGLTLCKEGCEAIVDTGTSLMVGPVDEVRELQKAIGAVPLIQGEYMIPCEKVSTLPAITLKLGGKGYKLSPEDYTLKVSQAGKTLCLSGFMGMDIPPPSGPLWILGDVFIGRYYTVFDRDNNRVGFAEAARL

Chain of memapsin 2 (P56817 46-501): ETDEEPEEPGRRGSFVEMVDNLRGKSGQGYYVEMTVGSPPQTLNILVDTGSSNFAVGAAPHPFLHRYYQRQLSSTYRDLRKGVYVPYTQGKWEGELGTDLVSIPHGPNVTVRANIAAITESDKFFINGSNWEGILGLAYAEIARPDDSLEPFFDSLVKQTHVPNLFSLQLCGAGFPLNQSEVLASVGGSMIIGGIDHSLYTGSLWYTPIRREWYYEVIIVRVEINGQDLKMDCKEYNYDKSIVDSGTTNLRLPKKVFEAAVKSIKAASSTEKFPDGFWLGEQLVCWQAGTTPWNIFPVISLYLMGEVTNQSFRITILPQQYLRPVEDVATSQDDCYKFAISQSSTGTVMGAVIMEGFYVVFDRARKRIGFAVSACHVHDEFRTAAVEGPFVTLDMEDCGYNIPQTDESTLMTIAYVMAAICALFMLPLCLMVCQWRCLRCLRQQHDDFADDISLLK

Consider `CCC(CC)S(=O)(=O)C[C@H](NC(=O)OCc1nc(C)cs1)C(=O)N[C@H](CC(C)C)[C@@H](O)C[C@@H](C)C(=O)N[C@@H](C(=O)NCC(C)C)C(C)C` [Structure 73], for which the IC50 with Aβ production lay in the range of 6000 to 100000 nM. In addition, the Ki at memapsin 1 was 100 to 1000 nM; on memapsin 2, < 100 nM; at Cathepsin D, 100 to 1000 nM.

On to `CCc1nc(COC(=O)N[C@@H](CS(C)(=O)=O)C(=O)N[C@H](CC(C)C)[C@@H](O)C[C@@H](C)C(=O)N[C@@H](C(=O)NCC(C)C)C(C)C)c(C)o1` [Structure 74], for which the IC50 in the assay with Aβ production was < 6000 nM. Besides, the inhibitory constant (Ki) was 100 to 1000 nM on memapsin 1, < 100 nM on memapsin 2 and 100 to 1000 nM on Cathepsin D.

For the molecule `CC[C@@H](Cc1nc(C)cs1)C(=O)N[C@@H](CSC)C(=O)N[C@H](CC(C)C)[C@@H](O)C[C@@H](C)C(=O)N[C@@H](C(=O)NCC(C)C)C(C)C` [Structure 75], the concentration for half-maximal inhibition (IC50) in the assay on Aβ production was < 6000 nM. In addition, the inhibition constant (Ki) on memapsin 1 was 100 to 1000 nM; on memapsin 2 it was < 100 nM; on Cathepsin D, < 100 nM.

As to `CC[C@@H](Cc1nc(C)cs1)C(=O)N[C@@H](CS(C)(=O)=O)C(=O)N[C@H](CC(C)C)[C@@H](O)C[C@@H](C)C(=O)N[C@@H](C(=O)NCC(C)C)C(C)C` [Structure 77], the IC50 in the assay with Aβ production is < 6000 nM. In addition, the Ki on memapsin 1 was 100 to 1000 nM; at memapsin 2, < 100 nM; at Cathepsin D, < 100 nM.

In turn, `Cc1nc(COC(=O)N[C@@H](CS(C)(=O)=O)C(=O)N[C@H](Cc2cc(F)cc(F)c2)[C@@H](O)C[C@@H](C)C(=O)N[C@@H](C(=O)NCC(C)C)C(C)C)c(C)o1` [Structure 78] registered an IC50 in the assay with Aβ production of 6000 to 100000 nM. In addition, the Ki at memapsin 1 is < 100 nM; on memapsin 2, 100 to 1000 nM; at Cathepsin D, < 100 nM.

On to `Cc1csc(COC(=O)N[C@@H](CS(C)(=O)=O)C(=O)N[C@H](Cc2cc(F)cc(F)c2)[C@@H](O)C[C@@H](C)C(=O)N[C@@H](C(=O)NCC(C)C)C(C)C)n1` [Structure 79], for which the IC50 in the assay with Aβ production is < 6000 nM. Further, the Ki at memapsin 1, on memapsin 2 and on Cathepsin D was < 100 nM in each case.

`Cc1nc(COC(=O)N[C@@H](CS(C)(=O)=O)C(=O)N[C@H](CC(C)C)[C@@H](O)C[C@@H](C)C(=O)N[C@@H](C(=O)O)C(C)C)c(C)o1` [Structure 86]: the IC50 with Aβ production was > 100000 nM. For the same molecule, the Ki on memapsin 1 was 100 to 1000 nM; on memapsin 2, 100 to 1000 nM; on Cathepsin D, > 1000 nM.

For `COC(=O)[C@H](NC(=O)[C@H](C)C[C@H](O)[C@@H](CC(C)C)NC(=O)[C@H](CSC)NC(=O)OCc1nc(C)cs1)C(C)C` [Structure 88], the IC50 in the assay on Aβ production is < 6000 nM. The inhibition constant Ki on memapsin 1 is > 1000 nM; on memapsin 2, > 1000 nM; on Cathepsin D, 100 to 1000 nM.

`CSC[C@H](NC(=O)OCc1ccn(C)n1)C(=O)N[C@H](CC(C)C)[C@@H](O)C[C@@H](C)C(=O)N[C@@H](C(=O)NCC(C)C)C(C)C` [Structure 93]: the IC50 in the assay on Aβ production is 6000 to 100000 nM. For the same molecule, the Ki on memapsin 1 is 100 to 1000 nM; at memapsin 2 it was 100 to 1000 nM; at Cathepsin D it was < 100 nM.

As for `Cc1nc(COC(=O)N[C@@H](CS(C)(=O)=O)C(=O)N[C@H](CC(C)C)[C@@H](O)C[C@@H](C)C(=O)N[C@@H](C(=O)NCC(C)C)C(C)C)c(C)o1` [Structure 94], in the assay on Aβ production, the IC50 was < 6000 nM. Moreover, the Ki on memapsin 1 is 100 to 1000 nM; at memapsin 2, < 100 nM; at Cathepsin D it was 100 to 1000 nM.

With `Cc1coc(COC(=O)N[C@@H](CS(C)(=O)=O)C(=O)N[C@@H](CC(C)C)[C@@H](O)C[C@@H](C)C(=O)N[C@H](C(=O)NCC(C)C)C(C)C)n1` [Structure 95], the IC50 with Aβ production is < 6000 nM. Moreover, the Ki at memapsin 1 is > 1000 nM; on memapsin 2, < 100 nM; on Cathepsin D it was 100 to 1000 nM.

As a reminder, the IC50 is the concentration at which inhibition is half-maximal. Read a low IC50 as greater potency. Broadly, the Ki is a dissociation constant, usually derived from enzyme kinetics or from competition with a known ligand.
